Read-outs that look alike come from different tables or passages of the source.
Conditions: for Solubility (%w/v): crotamiton tests
Method: 500 mg crotamiton (SynTech, Ph.Eur. grade) is weighed in a 5-ml volumetric flask; the flask is then filled to 5 ml with F6H8 (Novaliq, purity >99%), closed and shaken for 5 min at 280 rpm, RT.

In the case of `CC=CC(=O)N(CC)c1ccccc1C` [Crotamiton, crotamiton], the “Appearance of resulting solution” value (100 mg/ml (10% w/v) in F6H8, shaken 5 min at 280 rpm, RT) is reported as “clear”, the “Solubility (%w/v)” value (solvent F4H5) is reported as greater than 12%w/v and the “Solubility (%w/v)” value (solvent F6H2) is reported as “^~6%w/v”. For the same compound, the “Solubility (%w/v)” value (solvent F6H8) was greater than 12%w/v.
